According to ChEMBL document CHEMBL1127610, “Synthesis and atypical antipsychotic profile of some 2-(2-piperidinoethyl)benzocycloalkanones as analogues of butyrophenone” (J Med Chem, 1994):

What was measured:
[1] = organism: Rattus norvegicus; test: Value was obtained against serotonin-induced (5-HT2A) contractions in rat aorta rings; details: read-out: pA2 (converted)
[2] = molecular target: D(1A) dopamine receptor (Rattus norvegicus, UniProt P18901); test: Inhibition of [3H]-SCH- 23390 binding to dopamine receptor D1 rat striatal membrane
[3] = molecular target: 5-hydroxytryptamine receptor 2A (Rattus norvegicus, UniProt P14842); test: Inhibition of [3H]ketanserin binding to 5-hydroxytryptamine 2A receptor rat frontal cortex membrane; format: tissue-based
[4] = molecular target: D(2) dopamine receptor (Rattus norvegicus, UniProt P61169); test: Inhibition of [3H]-spiperone […] binding to dopamine receptor D2 rat striatal membrane
D(2) dopamine receptor, sequence (P61169 whole entry): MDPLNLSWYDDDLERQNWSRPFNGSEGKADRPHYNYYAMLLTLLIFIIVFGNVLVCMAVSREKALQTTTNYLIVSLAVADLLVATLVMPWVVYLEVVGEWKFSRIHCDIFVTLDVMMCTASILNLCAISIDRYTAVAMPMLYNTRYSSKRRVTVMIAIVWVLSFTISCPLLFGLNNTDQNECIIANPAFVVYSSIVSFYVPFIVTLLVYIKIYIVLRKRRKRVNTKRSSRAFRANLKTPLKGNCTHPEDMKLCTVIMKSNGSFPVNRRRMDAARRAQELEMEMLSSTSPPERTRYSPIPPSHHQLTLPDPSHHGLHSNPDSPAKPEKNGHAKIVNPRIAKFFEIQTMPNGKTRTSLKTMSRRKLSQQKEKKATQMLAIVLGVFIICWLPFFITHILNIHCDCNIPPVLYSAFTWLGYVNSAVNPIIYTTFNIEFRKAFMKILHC

5-hydroxytryptamine receptor 2A, sequence (P14842 whole entry): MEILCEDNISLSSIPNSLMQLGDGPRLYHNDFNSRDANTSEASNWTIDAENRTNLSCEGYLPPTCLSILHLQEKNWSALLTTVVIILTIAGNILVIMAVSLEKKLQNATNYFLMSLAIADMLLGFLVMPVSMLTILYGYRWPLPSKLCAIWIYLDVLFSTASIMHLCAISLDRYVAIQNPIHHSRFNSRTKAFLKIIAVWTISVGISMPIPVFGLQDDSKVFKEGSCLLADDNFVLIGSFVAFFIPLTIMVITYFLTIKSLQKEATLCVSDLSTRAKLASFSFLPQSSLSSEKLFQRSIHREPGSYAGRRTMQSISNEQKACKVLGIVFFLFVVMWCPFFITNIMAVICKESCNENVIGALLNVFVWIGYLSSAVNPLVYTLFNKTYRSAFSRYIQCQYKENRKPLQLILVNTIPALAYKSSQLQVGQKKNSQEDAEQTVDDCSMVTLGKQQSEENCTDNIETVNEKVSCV
D(1A) dopamine receptor, sequence (P18901 whole entry): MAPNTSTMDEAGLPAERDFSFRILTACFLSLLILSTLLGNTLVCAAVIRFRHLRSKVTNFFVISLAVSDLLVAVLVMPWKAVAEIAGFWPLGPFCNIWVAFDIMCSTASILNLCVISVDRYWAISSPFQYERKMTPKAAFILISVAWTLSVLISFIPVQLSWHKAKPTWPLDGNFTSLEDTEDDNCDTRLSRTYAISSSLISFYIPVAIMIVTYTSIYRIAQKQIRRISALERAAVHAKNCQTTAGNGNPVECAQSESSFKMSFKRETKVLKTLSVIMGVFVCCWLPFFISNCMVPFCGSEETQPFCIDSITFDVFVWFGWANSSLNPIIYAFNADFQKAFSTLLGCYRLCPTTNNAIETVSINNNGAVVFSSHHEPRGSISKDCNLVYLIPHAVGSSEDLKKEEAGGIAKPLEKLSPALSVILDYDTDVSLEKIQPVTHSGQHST

Ki [2] [nM] | Ki [3] [nM] | Ki [4] [nM] | Compound | Kb [1] [nM]
1290 | 12.9 |  | O=C(c1ccc(F)cc1)C1CCN(CCC2CCCc3ccccc3C2=O)CC1 (stereo not drawn) | 178
1100 | 3.8 | 47.9 | O=C(c1ccc(F)cc1)C1CCN(CCC2Cc3cc(F)ccc3C2=O)CC1 (stereo not drawn) | 7.59
2820 | 2.51 |  | O=C(c1ccc(F)cc1)C1CCN(CCC2Cc3ccccc3C2=O)CC1 (stereo not drawn) | 7.59
1550 | 7.76 |  | O=C(c1ccc(F)cc1)C1CCN(CCC2CCc3ccccc3C2=O)CC1 (stereo not drawn) | 35.5
